Results published in ChEMBL document CHEMBL1201862, “PubChem BioAssay data set” (2004).
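Protocol summary: plate cells (96-well), add compound at 5 concentrations, incubate 48 h, interpolate endpoints linearly. GI50 is the concentration that inhibits growth by half.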 The source made the active and inactive calls. Rule as the data show it: active = GI50 up to about 1.1 µM and inactive = higher.

Columns and labels:
Experiment in all cases: NCI-60 cell line screen, 48 h
HOP-92 = test system: HOP-92
HL-60 = test system: HL-60
MDA-MB-231 = test system: MDA-MB-231
SK-OV-3 = test system: SK-OV-3
HT-29 = test system: HT-29
SK-MEL-2 = test system: SK-MEL-2
UACC-257 = test system: UACC-257
UACC-62 = test system: UACC-62
MCF7 = test system: MCF7
TK-10 = test system: TK-10
SW-620 = test system: SW-620
COLO 205 = test system: COLO 205
NCI/ADR-RES = test system: NCI/ADR-RES
NCI-H23 = test system: NCI-H23
IGROV-1 = test system: IGROV-1
A498 = test system: A498
Hs-578T = test system: Hs-578T
SNB-75 = test system: SNB-75
MDA-MB-435 = test system: MDA-MB-435
SR = test system: SR

Measured: GI50

CC(=O)OCc1cc(=O)n2c([nH]c3ccccc32)c1C#N
inactive: HOP-92 84.3 µM | HL-60 42.3 µM | MDA-MB-231 48.4 µM | SK-OV-3 80.7 µM | HT-29 79.4 µM | SK-MEL-2 76.6 µM | UACC-257 > 100 µM | UACC-62 59.7 µM | MCF7 > 100 µM | TK-10 82.4 µM | SW-620 96.6 µM | COLO 205 53.3 µM | NCI/ADR-RES > 100 µM | NCI-H23 > 100 µM | IGROV-1 55 µM | A498 69.2 µM

Cc1n[nH]c(=O)n1/N=C/c1cccs1
inactive: MDA-MB-231 > 100 µM | SK-OV-3 > 100 µM | HT-29 > 100 µM | SK-MEL-2 > 100 µM | UACC-257 > 100 µM | UACC-62 > 100 µM | MCF7 > 100 µM | Hs-578T 36.5 µM | SNB-75 > 100 µM | SW-620 > 100 µM | COLO 205 > 100 µM | NCI/ADR-RES > 100 µM | MDA-MB-435 > 100 µM | NCI-H23 > 100 µM | A498 > 100 µM

O=C(O)c1ccccc1SCc1cccc2c(=O)c3ccc(Cl)cc3oc12
inactive: HL-60 11 µM | SR 39 µM | MDA-MB-231 > 50 µM | SK-OV-3 > 50 µM | HT-29 > 50 µM | SK-MEL-2 46.9 µM | UACC-257 > 50 µM | UACC-62 21.4 µM | MCF7 > 50 µM | SNB-75 15.6 µM | TK-10 29.8 µM | SW-620 > 50 µM | COLO 205 > 50 µM | NCI/ADR-RES > 50 µM | MDA-MB-435 > 50 µM | NCI-H23 35.3 µM | IGROV-1 49.5 µM | A498 > 50 µM

CCOC(=O)C1(C)CCCc2sc(N)c(C#N)c21 (stereo not given)
inactive: HOP-92 > 100 µM | HL-60 > 100 µM | SR > 100 µM | MDA-MB-231 > 100 µM | HT-29 > 100 µM | SK-MEL-2 > 100 µM | UACC-257 > 100 µM | UACC-62 > 100 µM | MCF7 > 100 µM | Hs-578T > 100 µM | SNB-75 69 µM | TK-10 > 100 µM | SW-620 > 100 µM | COLO 205 > 100 µM | NCI-H23 > 100 µM | IGROV-1 > 100 µM | A498 > 100 µM

COC(=O)N1CC(=O)C(C(=O)NC23CC4CC(CC(C4)C2)C3)C1 (stereo not given)
inactive: HOP-92 > 100 µM | HL-60 32.1 µM | SR 48.3 µM | MDA-MB-231 42.7 µM | HT-29 78.9 µM | SK-MEL-2 77.3 µM | UACC-257 > 100 µM | UACC-62 69.7 µM | MCF7 45.3 µM | TK-10 > 100 µM | SW-620 > 100 µM | COLO 205 62.1 µM | NCI/ADR-RES 84.1 µM | MDA-MB-435 > 100 µM | NCI-H23 > 100 µM | IGROV-1 > 100 µM | A498 > 100 µM

CN(C)C(=O)C(F)(F)C(c1ccccc1Br)C1C(=O)N(C)C(=O)N(C)C1=O (stereo not given)
inactive: HOP-92 > 100 µM | MDA-MB-231 > 100 µM | SK-OV-3 > 100 µM | SK-MEL-2 > 100 µM | UACC-257 > 100 µM | UACC-62 > 100 µM | MCF7 > 100 µM | SNB-75 > 100 µM | TK-10 > 100 µM | SW-620 > 100 µM | COLO 205 > 100 µM | NCI/ADR-RES > 100 µM | MDA-MB-435 > 100 µM | NCI-H23 > 100 µM | A498 > 100 µM

[O-][n+]1c2cccc(O)c2[n+]([O-])c2cccc(O)c21
inactive: HOP-92 22.7 µM | HL-60 47.9 µM | SK-OV-3 45.7 µM | HT-29 > 100 µM | UACC-257 37.9 µM | MCF7 20.7 µM | Hs-578T > 100 µM | SNB-75 > 100 µM | TK-10 23.4 µM | SW-620 47.9 µM | COLO 205 52.8 µM | NCI/ADR-RES 70.8 µM | MDA-MB-435 > 100 µM | NCI-H23 94.6 µM | IGROV-1 6.53 µM | A498 > 100 µM

C=CCOC(=O)CC[N+]1=CCC(c2ccccc2)(c2ccccc2)O1
inactive: HOP-92 > 100 µM | MDA-MB-231 > 100 µM | SK-OV-3 > 100 µM | HT-29 > 100 µM | SK-MEL-2 > 100 µM | UACC-257 > 100 µM | UACC-62 > 100 µM | MCF7 > 100 µM | Hs-578T > 100 µM | TK-10 > 100 µM | SW-620 > 100 µM | COLO 205 > 100 µM | MDA-MB-435 > 100 µM | NCI-H23 > 100 µM | IGROV-1 > 100 µM | A498 > 100 µM
